Results reported in patent US20080026003A1, “Methods for inhibiting pain” (The General Hospital Corporation, priority 2000, published 2008).

Key:
NK-1 = conditions: 1 μg intrathecal 30 minutes before and 6 hours after CFA; 24 hours
Experimental: The data are represented as mean+SEM.
To explore whether ERK activation is involved in NK-1 upregulation, the MEK inhibitor U0126 was delivered intrathecally before the induction of inflammation via an osmotic pump (0.5 μg/ul/hr for 2 days). In particular, an Alzet osmotic pump (three days pump, 1 μl/hr) was filled with the MEK-inhibitor U0126 (0.5 μg/μl) in 50% DMSO, and the catheter of the pump implanted intrathecally at least three hours before CFA injection. DMSO (50%) was used as vehicle control.

[1] = test system: CFA-induced inflammatory pain in rats
Text: For these studies, animals were habituated to the testing environment daily for two days before baseline testing. Except for the heat test, all the animals were placed on an elevated wire grid. For mechanical allodynia, the plantar surface of the hindpaw was stimulated with a series of von Frey hairs. The threshold was taken as the lowest force that evoked a brisk withdrawal response. For heat hyperalgesia, the plantar surface of a hindpaw was exposed to a beam of radiant heat through a transparent Perspex surface (Hargreaves et al., Pain 32:77-88, 1988). The withdrawal latency was recorded, with a maximum 15 seconds as cutoff. The withdrawal latency was averaged over three trials.
To examine the functional consequences of ERK activation and its downstream effects on prodynorphin and NK-1 upregulation, we determined whether inhibition of ERK activation modified inflammatory pain hypersensitivity.
ERK activation by CFA may contribute to inflammatory pain hypersensitivity either by maintaining ongoing post-translational changes or by inducing transcription of genes such as NK1 and prodynorphin. In the former case, blocking ERK activation in established inflammation would be expected to reduce the pain hypersensitivity within tens of minutes due to dephosphorylation of ERK substrates. If the contribution of ERK activation were through transcription, inhibiting ERK activation would be expected to have no immediate effect, but have a delayed effect. To distinguish between these two possible mechanisms, U0126 was intrathecally injected (1 μg) into rats with established inflammation (24 hours after CFA injection) and tested pain hypersensitivity 30 minutes, 6 hours, and 24 hours after the injection of U0126.

prodynorphin mRNA = conditions: 2×1 μg intrathecal; 24 hours after CFA
Text: To investigate changes in the expression of prodynorphin in response to inflammation, an RNase protection assay, in situ hybridization, and immunohistochemistry were used. […] Differences between groups were compared using student the t-test or ANOVA, followed by Fisher's PLSD. For non-parametric data, the Mann-Whittney U test was applied.
For the in situ hybridization analysis, animals were rapidly sacrificed in a CO2 chamber, and L4-L5 spinal cord segments were removed and cut on a cryostat at a thickness of 20 μm. […] An antinsense RNA probe, and the corresponding sense control probe, were labeled by in vitro transcription using linearized DNA templates for prodynorphin and dig labeling mixture for two hours at 37° C. […] Tissue Sections were air dried for two hours, fixed in 4% paraformaldehyde for 15 minutes, and acetylated in acetic anhydride (0.25%) for 10 minutes. Sections were pre-hybridized for two hours at room temperature, then incubated in hybridization buffer overnight at 60° C. […] Eight non-adjacent sections from the L4-L5 lumbar spinal cord were randomly selected, and the numbers of mRNA-positive neuronal profiles in the superficial laminae and/or deep laminae of the dorsal horn in each section were counted (under a 20× object field) by an observer blind to the treatment. […]

PGE2 = test: Central PGE2 levels after intrathecal IL-1β; type: in vivo, rat; conditions: intrathecal 5 ng
Experimental: To visualize the induction of Cox-2 protein in dorsal horns after peripheral inflammation, immunohistochemistry was performed on transverse spinal cord sections (20 μm) using a Cox-2 antibody (Santa Cruz) and a neuronal marker, the NeuN antibody (Chemicon), as described previously (Amay et al., Mol. Cell Neurosci. 15:331-342, 2000). In situ hybridization was performed using a digoxygenin-labeled riboprobe to visualize the induction of Cox-2 mRNA (Mannion et al., Proc. Natl. Acad. Sci. U. S. A. 96:9385, 1999). Low basal levels of Cox-2 mRNA and protein were present in dorsal horn neurons with a substantial upregulation six and 12 hours post-inflammation (FIGS. 2A-2D and 3). To determine whether this induction of Cox-2 was correlated with an increase in PGE2 levels, a 100-200 μl sample of cerebrospinal fluid was withdrawn from the cisterna magna of anaesthetized rats using a 27 G needle, and PGE2 levels were analyzed using a PGE2 enzyme-immunoassay according to the manufacturer's protocol (Amersham Pharmacia Biotech). […]
To determine whether IL-1β induces central Cox-2, rats were subjected to intravenous or intrathecal administration of this cytokine, and Cox-2 mRNA levels in the lumbar spinal cord were assessed five hours later. […]

Cox-2 mRNA [2] = test: Cox-2 mRNA in spinal cord and DRG after IL-1β administration in vivo; parameters: species or system rat; conditions: for upregulation of Cox-2 mRNA in the spinal cord: five hours later
Experimental: (§1) To determine whether IL-1β induces central Cox-2, rats were subjected to intravenous or intrathecal administration of this cytokine, and Cox-2 mRNA levels in the lumbar spinal cord were assessed five hours later. […] IL-1β also induces Cox-2 expression in dorsal root ganglion neurons (“DRG”), which are primary sensory neurons, both in vivo after intrathecal IL-1β administration and in vitro in primary neuronal cultures. […] For this analysis, Cox-2 mRNA levels were monitored using an RNase protection assay, and protein expression was visualized by immunohistochemistry, as described herein (FIG. 10).

p38 and ERK = test: MAP kinase phosphorylation in primary DRG neuron cultures; type: cell-based, rat; conditions: 10 ng/ml; 30 minutes
Experimental: To investigate the intracellular signaling pathway that leads to the increase in Cox-2 mRNA in the DRG neurons following treatment with IL-1β, the activation of the NFκ-B transcription factor and members of the MAP kinase family in primary DRG neurons was studied. […] Phosphorylated p38 and ERK were visualized by standard Western blot analysis and immunohistochemistry 30 minutes after administration of 10 ng/ml IL-1β to the culture medium (FIG. 12).
After CFA-induced inflammation, NGF is produced in the inflamed paw tissue and is retrogradely transported to the cell body of DRG neurons. NGF is critical for gene expression in DRG neurons and plays a major role in inflammatory pain (Lindsay et al., Nature 337: 362-364, 1989; and Woolf et al., Neuroscience 62:327-331, 1994). […] To determine whether NGF is required for the inflammation-induced activation of p38 and upregulation of VR1, NGF antiserum (i.p., 5 μl/g body weight, 84 mg/ml) was injected to neutralize endogenous NGF. […] Intrathecal injection of NGF (2 μg in 10 μl, twice a day for three days, Boeringer) increased both p-p38 levels and VR1 levels in DRG neurons. […] To test whether NGF acts via p38 to upregulate VR1, the p38 inhibitor SB203580 (1 μg) was co-administrated with NGF (twice a day for three days).

Cox-2 mRNA [3] = test: Cox-2 mRNA in isolated spinal cord slice in vitro; type: cell-based, rat; conditions: 10 ng/ml; after three hours
Experimental: Two mechanisms may contribute to central Cox-2 induction in response to peripheral inflammation: 1) sensory inflow from nerve fibers innervating the inflamed hindpaw or 2) circulating pro-inflammatory cytokines. To determine whether primary sensory neuron activity increases central Cox-2, an isolated adult rat spinal cord slice preparation with an attached dorsal root was analyzed (FIG. 5A). To prepare this spinal cord slice, the lumbar spinal cord from an adult rat under urethane anesthesia was removed and immersed in cold Kreb's solution. A 700-μm-thick transverse slice with attached L4 dorsal root (15-20 mm) was prepared and perfused with Kreb's solution saturated with 95% O2 and 5% CO2 at 36-37° C. (Baba et al., J Neurosci 19:859, 1999). The L4 dorsal root was electrically stimulated for 30 minutes using a suction electrode at 20 μA (0.05 ms, 50 Hz) for Aβ-fibers, 100 μA (0.05 ms, 50 Hz) for […] 1000 μA (0.5 ms, 50 Hz) for C-fibers. The slices were perfused with Kreb's solution for two hours before electrical stimulation, and for three hours after stimulation.

Cox-2 mRNA [4] = test: Cox-2 mRNA induction by IL-1β in primary DRG neuron cultures; type: cell-based, rat; conditions: 1 or 10 ng/ml
Experimental: as §1
To measure the contribution of p38, ERK, and NFκ-B to IL-1β-mediated induction of Cox-2 mRNA and protein levels, specific inhibitors for each of these factors were used. p38 and ERK inhibitors each decreased the induction by IL-1β of Cox-2 mRNA in the primary DRG neuron cultures by 30% (FIG. 10).

[5] = non-inflamed animals, 1 μg intrathecal, 30 minutes after administration

Compound | CFA-induced NK-1 increase in the dorsal horn (Western blot) (NK-1) | heat hyperalgesia and mechanical allodynia ([1]; 1 μg intrathecal 24 hours after CFA, tested at 30 minutes) | mechanical allodynia ([1]; 1 μg intrathecal 24 hours after CFA, tested at 6 hours) | heat hyperalgesia ([1]; 1 μg intrathecal 24 hours after CFA, tested at 24 hours) | heat withdrawal latency [1, 5] | mechanical withdrawal threshold [1, 5] | number of prodynorphin mRNA labeled neurons in the deep laminae (prodynorphin mRNA) | upregulation of central PGE2 levels (PGE2) [fold] | central PGE2 levels (PGE2; p<0.005, n=6) [pg/mL] | upregulation of Cox-2 mRNA in the spinal cord (Cox-2 mRNA [2]; intrathecal 5 ng) [fold] | upregulation of Cox-2 mRNA in the spinal cord (Cox-2 mRNA [2]; intrathecal 50 ng) [fold] | Cox-2 mRNA levels in rat lumbar DRG neurons (Cox-2 mRNA [2]; intrathecal 1 and 10 ng, four hours after treatment) | upregulation of Cox-2 mRNA in the spinal cord (Cox-2 mRNA [2]; intravenous 1 μg) | phosphorylation of p38 and ERK in DRG cell cultures (p38 and ERK) | Cox-2 mRNA expression in the spinal cord in vitro (Cox-2 mRNA [3]) | Cox-2 mRNA and protein levels in cultured DRG neurons (Cox-2 mRNA [4])
N#CC(=C(/N)Sc1ccccc1N)/C(C#N)=C(\N)Sc1ccccc1N [U0126] | inhibited | Neither heat hyperalgesia nor mechanical allodynia was significantly affected | decreased | decreased | 113 % of vehicle control | 108 % of the vehicle control | without affecting |  |  |  |  |  |  |  |  | 
IL-1β: cytokine administered intravenously, intrathecally or to cultures |  |  |  |  |  |  |  | 50 | 1204 ± 360 | 20 | 30 | substantially upregulated | four | lead to phosphorylation of p38 and ERK | increased | increased significantly
